The text below walks through data of ChEMBL document CHEMBL1139273, “Aryl aminopyrazole benzamides as oral non-steroidal selective glucocorticoid receptor agonists” (Bioorg Med Chem Lett, 2009).

Series [1] addresses Cytochrome P450 2C9 (Homo sapiens, UniProt P11712). Nature of the series: Inhibition of CYP2C9. Type of series: ADME.
For series [2], the target named is Cytochrome P450 2D6 (Homo sapiens, UniProt P10635). Briefly: Inhibition of CYP2D6. Type of series: ADME.
In series [3] the test system is A549. Nature of the series: Inhibition of TNF-induced NFkappaB activation in human A549 cells after 15 hrs relative to Dexamethasone. The class given is cell-based. The arrangement: scale not given: the % may be the effect or the level left.
The target in series [4] is Albumin (Homo sapiens, UniProt P02768). Briefly: Binding affinity to human serum albumin by fast gradient HPLC. The class given is ADME. Conditions: isolated protein.
Series [5] deals with Cytochrome P450 3A4 (Homo sapiens, UniProt P08684).
Series [6] is described as follows: Inhibition of TNF-induced NF-kappaB activation in human A549 cells after 15 hrs. Conditions: Homo sapiens, A549, 15 h, read-out: pIC50 (converted).
Series [7] has as its target Cytochrome P450 2C19 (Homo sapiens, UniProt P33261). Nature of the series: Inhibition of CYP2C19. Type of series: ADME.
Series [8] deals with T1, Glucocorticoid receptor (Homo sapiens, UniProt P04150).
T1 sequence (P04150 whole entry): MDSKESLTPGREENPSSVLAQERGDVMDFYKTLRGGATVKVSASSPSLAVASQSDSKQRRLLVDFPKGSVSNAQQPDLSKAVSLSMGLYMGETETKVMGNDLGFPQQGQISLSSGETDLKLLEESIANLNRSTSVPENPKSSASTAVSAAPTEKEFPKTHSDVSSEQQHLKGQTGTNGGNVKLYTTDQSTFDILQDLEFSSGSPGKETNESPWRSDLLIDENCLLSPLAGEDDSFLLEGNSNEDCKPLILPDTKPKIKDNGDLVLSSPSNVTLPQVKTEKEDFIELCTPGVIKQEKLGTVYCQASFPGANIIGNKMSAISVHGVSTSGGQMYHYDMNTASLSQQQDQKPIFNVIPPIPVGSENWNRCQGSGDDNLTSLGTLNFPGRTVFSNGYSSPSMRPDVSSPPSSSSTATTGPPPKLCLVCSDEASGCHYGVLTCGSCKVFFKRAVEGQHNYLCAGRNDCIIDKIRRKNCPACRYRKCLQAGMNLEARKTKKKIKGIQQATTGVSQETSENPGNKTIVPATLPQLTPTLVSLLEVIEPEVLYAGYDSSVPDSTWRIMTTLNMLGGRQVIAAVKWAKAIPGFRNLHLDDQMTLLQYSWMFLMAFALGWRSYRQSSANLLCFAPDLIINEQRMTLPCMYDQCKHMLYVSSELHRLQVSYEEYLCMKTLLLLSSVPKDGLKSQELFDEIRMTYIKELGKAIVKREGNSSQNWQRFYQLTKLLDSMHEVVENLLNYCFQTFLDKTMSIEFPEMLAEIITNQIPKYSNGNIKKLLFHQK
Description: Displacement of fluorescent labelled Dexamethasone from glucocorticoid receptor

Series [9] concerns the target T1, Glucocorticoid receptor. This is another data set of the same source.
Description: Agonist activity at human glucocorticoid receptor in human A549 cells assessed as transcriptional activity by MMTV luciferase reporter gene assay
Series [10] in a line: Protein binding in human plasma by ultrafiltration. The class given is ADME, cell-free. Conditions: read-out: PPB (converted).
In series [11] the target is T2, Cytochrome P450 1A2 (Homo sapiens, UniProt P05177).
T2 sequence (P05177 whole entry): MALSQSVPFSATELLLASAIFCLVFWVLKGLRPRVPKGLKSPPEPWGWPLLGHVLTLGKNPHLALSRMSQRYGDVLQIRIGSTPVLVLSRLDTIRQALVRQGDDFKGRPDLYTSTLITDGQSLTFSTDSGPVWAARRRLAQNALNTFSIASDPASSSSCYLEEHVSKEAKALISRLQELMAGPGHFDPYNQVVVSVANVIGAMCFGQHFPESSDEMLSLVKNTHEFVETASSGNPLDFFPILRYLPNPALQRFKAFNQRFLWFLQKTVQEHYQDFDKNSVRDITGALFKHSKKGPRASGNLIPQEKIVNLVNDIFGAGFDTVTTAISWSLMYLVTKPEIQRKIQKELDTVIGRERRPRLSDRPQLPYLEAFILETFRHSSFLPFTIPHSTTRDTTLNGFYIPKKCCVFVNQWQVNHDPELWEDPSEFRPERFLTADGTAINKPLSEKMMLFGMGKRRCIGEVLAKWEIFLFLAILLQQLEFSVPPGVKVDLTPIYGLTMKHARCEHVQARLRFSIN
Briefly: Inhibition of CYP1A2. Type of series: ADME.

Series [12] in a line: Volume of distribution at steady state in Sprague-Dawley rat at 1 mg/kg, iv and 1 mg/kg, po. The class given is ADME, organism-based. The following applies: in vivo, read-out: Vdss.
A short description of series [13]: Oral bioavailability in Sprague-Dawley rat at 1 mg/kg. The class given is ADME, organism-based. Conditions: in vivo.
Series [14] in a line: Clearance in Sprague-Dawley rat at 1 mg/kg, iv and 1 mg/kg, po. Type of series: ADME, organism-based. Conditions: in vivo.

Sequence of Cytochrome P450 2C19 (P33261 whole entry): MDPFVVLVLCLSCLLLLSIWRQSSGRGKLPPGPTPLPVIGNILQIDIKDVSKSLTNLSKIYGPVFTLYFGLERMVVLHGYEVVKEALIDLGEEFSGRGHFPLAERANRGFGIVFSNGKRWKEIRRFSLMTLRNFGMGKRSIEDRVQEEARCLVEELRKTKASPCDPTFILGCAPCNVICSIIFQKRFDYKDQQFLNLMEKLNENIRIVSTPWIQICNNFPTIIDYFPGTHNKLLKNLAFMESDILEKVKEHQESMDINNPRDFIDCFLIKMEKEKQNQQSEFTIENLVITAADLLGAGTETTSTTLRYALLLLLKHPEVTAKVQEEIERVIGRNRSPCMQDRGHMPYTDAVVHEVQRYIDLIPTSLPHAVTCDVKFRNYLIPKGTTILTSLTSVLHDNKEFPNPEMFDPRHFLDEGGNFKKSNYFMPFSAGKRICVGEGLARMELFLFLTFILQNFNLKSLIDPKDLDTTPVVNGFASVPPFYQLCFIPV
Sequence of Cytochrome P450 2D6 (P10635 whole entry): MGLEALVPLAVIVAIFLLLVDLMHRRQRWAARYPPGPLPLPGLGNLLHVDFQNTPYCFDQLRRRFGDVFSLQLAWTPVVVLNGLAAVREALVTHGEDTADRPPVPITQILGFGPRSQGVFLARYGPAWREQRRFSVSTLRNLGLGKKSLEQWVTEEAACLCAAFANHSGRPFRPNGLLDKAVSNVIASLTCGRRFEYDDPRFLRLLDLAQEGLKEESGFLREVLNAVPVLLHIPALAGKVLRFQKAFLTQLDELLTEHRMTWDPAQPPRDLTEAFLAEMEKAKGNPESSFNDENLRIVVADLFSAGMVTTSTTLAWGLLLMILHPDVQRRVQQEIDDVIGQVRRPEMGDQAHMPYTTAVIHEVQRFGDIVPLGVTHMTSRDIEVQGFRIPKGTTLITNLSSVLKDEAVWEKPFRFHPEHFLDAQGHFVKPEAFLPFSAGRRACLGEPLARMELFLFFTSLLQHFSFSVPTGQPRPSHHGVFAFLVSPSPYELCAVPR
Sequence of Albumin (P02768 whole entry): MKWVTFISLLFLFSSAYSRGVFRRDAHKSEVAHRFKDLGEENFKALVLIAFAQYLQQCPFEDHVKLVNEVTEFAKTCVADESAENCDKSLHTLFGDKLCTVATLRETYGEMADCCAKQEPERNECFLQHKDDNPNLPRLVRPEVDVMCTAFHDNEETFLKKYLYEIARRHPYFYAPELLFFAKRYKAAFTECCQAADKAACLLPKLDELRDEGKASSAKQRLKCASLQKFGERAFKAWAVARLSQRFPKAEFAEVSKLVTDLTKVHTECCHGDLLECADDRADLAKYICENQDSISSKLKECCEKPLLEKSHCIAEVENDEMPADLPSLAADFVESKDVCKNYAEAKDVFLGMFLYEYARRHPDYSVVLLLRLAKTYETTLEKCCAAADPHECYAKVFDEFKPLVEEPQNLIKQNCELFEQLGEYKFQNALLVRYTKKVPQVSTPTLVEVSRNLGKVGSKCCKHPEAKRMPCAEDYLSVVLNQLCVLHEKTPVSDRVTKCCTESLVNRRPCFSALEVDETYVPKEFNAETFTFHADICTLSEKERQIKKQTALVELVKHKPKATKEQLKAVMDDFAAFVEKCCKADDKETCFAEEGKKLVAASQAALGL
Sequence of Cytochrome P450 3A4 (P08684 whole entry): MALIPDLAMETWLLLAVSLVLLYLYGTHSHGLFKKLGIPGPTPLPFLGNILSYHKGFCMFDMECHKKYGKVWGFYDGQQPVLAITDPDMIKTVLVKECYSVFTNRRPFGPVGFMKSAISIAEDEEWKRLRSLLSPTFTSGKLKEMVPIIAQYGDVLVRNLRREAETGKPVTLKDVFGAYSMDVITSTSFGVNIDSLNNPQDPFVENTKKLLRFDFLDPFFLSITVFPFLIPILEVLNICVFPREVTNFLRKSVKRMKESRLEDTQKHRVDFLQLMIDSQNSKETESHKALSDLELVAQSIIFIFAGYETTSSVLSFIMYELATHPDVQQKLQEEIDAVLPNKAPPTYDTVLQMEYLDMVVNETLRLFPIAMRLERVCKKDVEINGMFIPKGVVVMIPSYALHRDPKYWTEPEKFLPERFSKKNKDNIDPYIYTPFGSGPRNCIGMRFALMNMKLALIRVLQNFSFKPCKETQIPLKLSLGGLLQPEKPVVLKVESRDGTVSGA
Sequence of Cytochrome P450 2C9 (P11712 whole entry): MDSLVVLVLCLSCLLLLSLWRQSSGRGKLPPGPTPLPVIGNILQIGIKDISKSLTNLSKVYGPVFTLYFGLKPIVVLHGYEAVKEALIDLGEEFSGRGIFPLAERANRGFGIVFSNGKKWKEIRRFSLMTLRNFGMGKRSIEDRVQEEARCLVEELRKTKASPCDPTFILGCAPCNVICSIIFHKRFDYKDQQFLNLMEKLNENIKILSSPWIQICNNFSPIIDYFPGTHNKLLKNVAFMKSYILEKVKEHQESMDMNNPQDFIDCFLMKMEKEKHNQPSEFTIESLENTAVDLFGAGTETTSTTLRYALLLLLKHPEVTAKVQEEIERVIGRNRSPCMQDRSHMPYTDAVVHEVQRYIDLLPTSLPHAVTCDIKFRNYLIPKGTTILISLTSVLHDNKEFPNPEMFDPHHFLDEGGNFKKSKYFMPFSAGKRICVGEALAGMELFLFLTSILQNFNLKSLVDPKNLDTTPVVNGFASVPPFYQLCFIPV

Regarding `CCN(CC(O)(CNC(=O)c1cnn(-c2ccc(F)cc2)c1N)C(F)(F)F)C(=O)c1c(Cl)cccc1Cl` (stereo not drawn), the IC50 is 0.8 µM in series [1]; 89 µM in series [2]; 0.7 µM in [5]; 0.000501 µM in series [6]; 7 µM in [7]; 0.00316 µM in series [8]. This compound also registered an IC50 in series [11] of 100 µM. Further, the Activity in [3] amounted to 101%; in series [4], 95%. Also, a half-maximal response in series [9] (EC50) required 0.002 µM. In addition, the fraction unbound in series [10] is 0.01.
As to `Nc1c(C(=O)NCC(O)(CN(CCO)C(=O)c2c(Cl)cccc2Cl)C(F)(F)F)cnn1-c1ccc(F)cc1` (stereo not drawn), the IC50 was 3 µM in series [1]; 54 µM in series [2]; 100 µM in [5]; 20 µM in series [7]; 100 µM in series [11]. This compound registered an Activity in series [4] of 89%. The fraction unbound in [10] was 0.07.
With `CCN(CC(O)(CNC(=O)c1cnn(-c2ccc(F)cc2)c1N)C(F)(F)F)C(=O)c1c(F)cccc1F` (stereo not drawn), the IC50 was 8 µM in [1]; 74 µM in [2]; 2 µM in series [5]; 0.00251 µM in [6]; 18 µM in series [7]; 0.00794 µM in [8]. Further, the IC50 in series [11] came out at 100 µM. Besides, the Vd in [12] turned out to be 2.8 L/kg. The results for the Activity in [3] and in series [4] were 104% and 93%, respectively. Also, the bioavailability – broadly, the share of a dose that reaches the circulation, judged against a reference dose that is usually intravenous – in [13] was 36%. The compound further yielded a clearance in series [14] of 27 mL/min/kg. The EC50 – broadly, the midpoint of the concentration-response curve – in series [9] was 0.00794 µM. Also, in [10], the fraction unbound was 0.03.
For `Nc1c(C(=O)NCC(O)(CN(CCO)C(=O)c2c(F)cccc2F)C(F)(F)F)cnn1-c1ccc(F)cc1` (stereo not drawn), the IC50 in series [1] was 13 µM; in series [2], 100 µM; in series [5], 76 µM; in series [6], 0.02 µM; in series [7], 40 µM; in series [8] it was 0.0158 µM. In series [11], this compound had an IC50 of 100 µM. Further, in series [12], the Vd was 0.9 L/kg. The Activity stood at 94% in [3] and 81% in [4]. For the same compound, in series [13], the bioavailability turned out to be 44%. For the same compound, the clearance in series [14] is 8 mL/min/kg. The compound also had an EC50 in [9] of 0.0501 µM. For the same compound, the fraction unbound in [10] was 0.32.
As to `CCN(CC(O)(CNC(=O)c1cnn(-c2ccc(F)cc2)c1N)C(F)(F)F)C(=O)c1ncccc1Cl` (stereo not drawn), the IC50 was 14 µM in series [1]; 100 µM in series [2]; 4 µM in [5]; 0.01 µM in series [6]; 100 µM in series [7]; 100 µM in series [11]. Further, the Activity in [4] worked out at 83%. Further, the fraction unbound in [10] was 0.15.
As to `Nc1c(C(=O)NCC(O)(CN(CCF)C(=O)c2c(F)cccc2F)C(F)(F)F)cnn1-c1ccc(F)cc1` (racemic), the IC50 was 4 µM in series [1]; 20 µM in series [2]; 0.5 µM in [5]; 0.01 µM in series [6]; 8 µM in series [7]; 0.02 µM in [8]. In [11], this compound gave an IC50 of 100 µM. Also, the Vd in [12] amounted to 2.6 L/kg. Also, the Activity in series [3] was found to be 94%; in series [4], 93%. Besides, the bioavailability in [13] worked out at 39%. The compound also yielded a clearance in series [14] of 21 mL/min/kg. Also, in [9], the EC50 is 0.0501 µM. In addition, the fraction unbound in series [10] was 0.07.
